From patent US8835462B2, “Macrocyclic picolinamides as fungicides” (Dow AgroSciences LLC, priority 2012, dated 2014) come the findings set out here.

What all share (type): in vivo
One test deals with Puccinia triticina. Briefly: Fungicide mobility (dropline mobility test), wheat brown rust (PUCCRT). The following applies: 1 ug/leaf, disease-free zone as percent of distance from marked line to leaf tip; for Dropline Mobility Test PUCCRT 1 DPM: 1 Day Protectant Mobility; for Dropline Mobility Test PUCCRT 3 DCM: 3 Day Curative Mobility. The procedure, abridged: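 Yuma wheat primary leaves, held horizontal, got a 2 μl drop of EC-formulated compound in water with 110 ppm Triton X-100 on a line 5 cm from the tip; 6 replicates. Inoculation 1 day after or 3 days before application. Acropetal disease-free zone measured as percent of line-to-tip distance once control rust fully expressed.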

In a further test the test system is Leptosphaeria nodorum. Briefly: Wheat glume blotch (LEPTNO) fungicidal activity. The following applies: Parastagonospora nodorum, 24 h, 1 Day Protectant, read-out: Disease Control LEPTNO 1DP. The protocol:
Technical grades of materials were dissolved in acetone, which were then mixed with nine volumes of water containing 110 ppm Triton X-100. The fungicide solutions were applied onto wheat seedlings using an automated booth sprayer to run-off. All sprayed plants were allowed to air dry prior to further handling. Wheat plants (variety Yuma) were grown from seed in a greenhouse in 50% mineral soil/50% soil-less Metro mix until the first leaf was fully emerged, with 7-10 seedlings per pot. These plants were inoculated with an aqueous spore suspension of Septoria tritici either prior to or after fungicide treatments. After inoculation the plants were kept in 100% relative humidity (one day in a dark dew chamber followed by two to three days in a lighted dew chamber at 20° C.) to permit spores to germinate and infect the leaf. The plants were then transferred to a greenhouse set at 20° C. for disease to develop. When disease symptoms were fully expressed on the 1st leaves of untreated plants, infection levels were assessed on a scale of 0 to 100 percent disease severity. Percent disease control was calculated using the ratio of disease severity on treated plants relative to untreated plants. Evaluation of Fungicidal Activity: Wheat Glume Blotch (Leptosphaeria Nodorum; Bayer Code […]) Wheat plants (variety Yuma) were grown from seed in a greenhouse in 50% mineral soil/50% soil-less Metro mix until the first leaf was fully emerged, with 7-10 seedlings per pot. These plants were inoculated with an aqueous spore suspension of Leptosphaeria nodorum 24 hr after fungicide treatments. After inoculation the plants were kept in 100% relative humidity (one day in a dark dew chamber followed by two days in a lighted dew chamber at 20° C.) to permit spores to germinate and infect the leaf. The plants were then transferred to a greenhouse set at 20° C. for disease to develop. Fungicide formulation, application and disease assessment followed the procedures as described in the Example A.

For a further test, the system named is Cercospora beticola. The experiment in a line: Leaf spot of sugar beets (CERCBE) fungicidal activity. As to conditions: 24 h, 1 Day Protectant, sugar beet, read-out: Disease Control CERCBE 1DP. How it is done: Technical grades of materials were dissolved in acetone, which were then mixed with nine volumes of water containing 110 ppm Triton X-100. The fungicide solutions were applied onto wheat seedlings using an automated booth sprayer to run-off. All sprayed plants were allowed to air dry prior to further handling. Wheat plants (variety Yuma) were grown from seed in a greenhouse in 50% mineral soil/50% soil-less Metro mix until the first leaf was fully emerged, with 7-10 seedlings per pot. These plants were inoculated with an aqueous spore suspension of Septoria tritici either prior to or after fungicide treatments. After inoculation the plants were kept in 100% relative humidity (one day in a dark dew chamber followed by two to three days in a lighted dew chamber at 20° C.) to permit spores to germinate and infect the leaf. The plants were then transferred to a greenhouse set at 20° C. for disease to develop. When disease symptoms were fully expressed on the 1st leaves of untreated plants, infection levels were assessed on a scale of 0 to 100 percent disease severity. Percent disease control was calculated using the ratio of disease severity on treated plants relative to untreated plants. Evaluation of Fungicidal Activity: Leaf Spot of Sugar Beets (Cercospora Beticola; Bayer Code CERCBE) Sugar beet plants (variety HH88) were grown in soil-less Metro mix and trimmed regularly to maintain an uniform plant size prior to test. Plants were inoculated with a spore suspension 24 hr after fungicide treatments. Inoculated plants were kept in a dew chamber at 22° C. for 48 hr then incubated in a greenhouse set at 24° C. under a clear plastic hood with bottom ventilation until disease symptoms were fully expressed. Fungicide formulation, application and disease assessment on the sprayed leaves followed the procedures as described in the Example A.

In test [1] the test system is Blumeria graminis f. sp. hordei. Briefly: Barley powdery mildew (ERYSGH) fungicidal activity. As to conditions: 24 h, 1 Day Protectant, read-out: Disease Control ERYSGH 1DP. The protocol:
Technical grades of materials were dissolved in acetone, which were then mixed with nine volumes of water containing 110 ppm Triton X-100. The fungicide solutions were applied onto wheat seedlings using an automated booth sprayer to run-off. All sprayed plants were allowed to air dry prior to further handling. Wheat plants (variety Yuma) were grown from seed in a greenhouse in 50% mineral soil/50% soil-less Metro mix until the first leaf was fully emerged, with 7-10 seedlings per pot. These plants were inoculated with an aqueous spore suspension of Septoria tritici either prior to or after fungicide treatments. After inoculation the plants were kept in 100% relative humidity (one day in a dark dew chamber followed by two to three days in a lighted dew chamber at 20° C.) to permit spores to germinate and infect the leaf. The plants were then transferred to a greenhouse set at 20° C. for disease to develop. When disease symptoms were fully expressed on the 1st leaves of untreated plants, infection levels were assessed on a scale of 0 to 100 percent disease severity. Percent disease control was calculated using the ratio of disease severity on treated plants relative to untreated plants. Evaluation of Fungicidal Activity: Barley Powdery Mildew (Blumeria Graminis f. sp. Hordei; Synonym: Erysiphe Graminis f. sp. Hordei; Bayer Code […]) Barley seedlings (variety Harrington) were propagated in soil-less Metro mix, with each pot having 8 to 12 plants, and used in the test when first leaf was fully emerged. Test plants were inoculated by dusting with infected stock plants 24 hr after fungicide treatments. After inoculation the plants were kept in a greenhouse set at 20° C. for disease to develop. Fungicide formulation, application and disease assessment on the sprayed leaves followed the procedures as described in the Example A.

On to `COc1ccnc(C(=O)N[C@H]2COC[C@H](Cc3ccccc3)[C@@H](OCC(C)C)[C@H](C)OC2=O)c1O` [Compound 2, N-((3S,7S,8R,9S)-7-benzyl-8-isobutoxy-9-methyl-2-oxo-1,5-dioxonan-3-yl)-3-hydroxy-4-methoxypicolinamide], for which, in the test with Puccinia triticina, the “Dropline Mobility Test PUCCRT 1 DPM” value was “B (More than 0-Less than 80)” and the “Dropline Mobility Test PUCCRT 3 DCM” value is “B (More than 0-Less than 80)”.

As to `COc1ccnc(C(=O)N[C@H]2COC[C@H](Cc3ccccc3)[C@@H](OCC(C)C)[C@H](C)OC2=O)c1OCOC(=O)C(C)C` [Compound 3], the pest or weed control at 100 ppm (in the test on Leptosphaeria nodorum; in the test with Cercospora beticola; in test [1]) was 80 to 100% in each case. In the test on Puccinia triticina, the “Dropline Mobility Test PUCCRT 1 DPM” value is recorded as “B (More than 0-Less than 80)”. Besides, the “Dropline Mobility Test PUCCRT 3 DCM” value in the test on Puccinia triticina is recorded as “B (More than 0-Less than 80)”.

In the case of `COc1ccnc(C(=O)N[C@H]2COC[C@H](Cc3ccccc3)[C@@H](OCC(C)C)[C@H](C)OC2=O)c1OCOC(=O)C(C)(C)C` [Compound 7], the pest or weed control at 100 ppm (in the test on Leptosphaeria nodorum; with Cercospora beticola; in test [1]) was 80 to 100% in each case. Further, in the test on Puccinia triticina, the “Dropline Mobility Test PUCCRT 1 DPM” value is on record as “B (More than 0-Less than 80)”. The “Dropline Mobility Test PUCCRT 3 DCM” value in the test on Puccinia triticina is reported as “B (More than 0-Less than 80)”.

On to `COc1ccnc(C(=O)N[C@H]2COC[C@H](Cc3ccccc3)[C@@H](OCC(C)C)[C@H](C)OC2=O)c1OCOC(C)=O` [Compound 8, (2-((3S,7S,8R,9S)-7-benzyl-8-isobutoxy-9-methyl-2-oxo-1,5-dioxonan-3-ylcarbamoyl)-4-methoxypyridin-3-yloxy)methyl acetate], for which the pest or weed control at 100 ppm (with Leptosphaeria nodorum; in the test on Cercospora beticola; in test [1]) was 80 to 100% throughout. Further, in the test with Puccinia triticina, the “Dropline Mobility Test PUCCRT 1 DPM” value is “B (More than 0-Less than 80)”. Besides, the “Dropline Mobility Test PUCCRT 3 DCM” value in the test on Puccinia triticina was “B (More than 0-Less than 80)”.

In the case of `COc1ccnc(C(=O)N[C@H]2COC[C@H](Cc3ccccc3)[C@@H](OCC(C)C)[C@H](C)OC2=O)c1OC(C)=O` [Compound 9, 2-(((3S,7S,8R,9S)-7-benzyl-8-isobutoxy-9-methyl-2-oxo-1,5-dioxonan-3-yl)carbamoyl)-4-methoxypyridin-3-yl acetate], the pest or weed control at 100 ppm (with Leptosphaeria nodorum; in the test with Cercospora beticola; in test [1]) was 80 to 100% in each case. Besides, the “Dropline Mobility Test PUCCRT 1 DPM” value with Puccinia triticina is recorded as “B (More than 0-Less than 80)”. The “Dropline Mobility Test PUCCRT 3 DCM” value in the test on Puccinia triticina was “B (More than 0-Less than 80)”.

Regarding `COc1ccnc(C(=O)N[C@H]2COC[C@H](Cc3ccccc3)[C@@H](OCC(C)C)[C@H](C)OC2=O)c1OC(=O)OC(C)C` [Compound 10, 2-(((3S,7S,8R,9S)-7-benzyl-8-isobutoxy-9-methyl-2-oxo-1,5-dioxonan-3-yl)carbamoyl)-4-methoxypyridin-3-yl isopropyl carbonate], the pest or weed control at 100 ppm (in the test on Leptosphaeria nodorum; with Cercospora beticola; in test [1]) was 80 to 100% each time. Further, the “Dropline Mobility Test PUCCRT 1 DPM” value with Puccinia triticina is “B (More than 0-Less than 80)”. For the same molecule, in the test with Puccinia triticina, the “Dropline Mobility Test PUCCRT 3 DCM” value is on record as “B (More than 0-Less than 80)”.

For the molecule `COc1ccnc(C(=O)N[C@H]2COC[C@H](Cc3ccccc3)[C@@H](OCCC(=O)N(C)C)[C@H](C)OC2=O)c1OCOC(C)=O` [Compound 15], the pest or weed control at 100 ppm in the test on Leptosphaeria nodorum and in the test on Cercospora beticola was 0 to 80% each time.

As to `COCCCO[C@@H]1[C@@H](Cc2ccccc2)COC[C@H](NC(=O)c2nccc(OC)c2OCOC(C)=O)C(=O)O[C@H]1C` [Compound 16], the pest or weed control at 100 ppm (with Leptosphaeria nodorum; with Cercospora beticola; in test [1]) was 80 to 100% throughout.

In the case of `CCCO[C@@H]1[C@@H](Cc2ccccc2)COC[C@H](NC(=O)c2nccc(OC)c2OCOC(C)=O)C(=O)O[C@H]1C` [Compound 22], the pest or weed control at 100 ppm (in the test on Leptosphaeria nodorum; with Cercospora beticola; in test [1]) was 80 to 100% in each case. In addition, in the test on Puccinia triticina, the “Dropline Mobility Test PUCCRT 1 DPM” value was “B (More than 0-Less than 80)”. For the same molecule, the “Dropline Mobility Test PUCCRT 3 DCM” value with Puccinia triticina was “B (More than 0-Less than 80)”.

On to `COc1ccnc(C(=O)N[C@H]2COC[C@H](Cc3ccccc3)[C@@H](Oc3ccccc3)[C@H](C)OC2=O)c1OCOC(C)=O` [Compound 40], for which the pest or weed control at 100 ppm with Leptosphaeria nodorum is 80 to 100%. Moreover, in the test on Cercospora beticola, the pest or weed control at 100 ppm lay within 80 to 100%. Moreover, in the test with Puccinia triticina, the “Dropline Mobility Test PUCCRT 1 DPM” value was “B (More than 0-Less than 80)” and the “Dropline Mobility Test PUCCRT 3 DCM” value was “B (More than 0-Less than 80)”.

With `COc1ccnc(C(=O)N[C@H]2COC[C@H](Cc3ccccc3)[C@@H](OCC(F)F)[C@H](C)OC2=O)c1OCOC(C)=O` [Compound 44], the pest or weed control at 100 ppm in the test with Leptosphaeria nodorum was 80 to 100%. For the same molecule, the pest or weed control at 100 ppm in the test on Cercospora beticola lay in the range of 0 to 80%. Besides, in the test with Puccinia triticina, the “Dropline Mobility Test PUCCRT 1 DPM” value is “B (More than 0-Less than 80)” and the “Dropline Mobility Test PUCCRT 3 DCM” value is given as “B (More than 0-Less than 80)”.

For the molecule `COc1ccnc(C(=O)N[C@H]2COC[C@H](Cc3ccccc3)[C@@H](OCCC(C)OC)[C@H](C)OC2=O)c1OCOC(C)=O` (stereo partly shown) [Compound 46], the pest or weed control at 100 ppm with Leptosphaeria nodorum was 80 to 100%. Moreover, in the test with Cercospora beticola, the pest or weed control at 100 ppm is 80 to 100%. In the test on Puccinia triticina, the “Dropline Mobility Test PUCCRT 1 DPM” value was “A (80-100)” and the “Dropline Mobility Test PUCCRT 3 DCM” value is “A (80-100)”.

For the molecule `COc1ccnc(C(=O)N[C@H]2COC[C@H](Cc3ccccc3)[C@@H](OC3CCCC3)[C@H](C)OC2=O)c1OCOC(C)=O` [Compound 106], the pest or weed control at 100 ppm (with Leptosphaeria nodorum; in the test with Cercospora beticola; in test [1]) was 80 to 100% each time.

With `COc1ccnc(C(=O)N[C@H]2COC[C@H](Cc3ccccc3)[C@@H](OC3CCCC3)[C@H](C)OC2=O)c1OC(C)=O` [Compound 107], the pest or weed control at 100 ppm (in the test with Leptosphaeria nodorum; in the test with Cercospora beticola; in test [1]) was 80 to 100% throughout.

Regarding `COc1ccnc(C(=O)N[C@H]2COC[C@H](Cc3ccccc3)[C@@H](OC3CCCC3)[C@H](C)OC2=O)c1OCOC(=O)C(C)C` [Compound 108], the pest or weed control at 100 ppm (with Leptosphaeria nodorum; in the test with Cercospora beticola; in test [1]) was 80 to 100% in each case.
